Measurements as given in patent publication US4362743A, “Antibacterial monic acid esters” (Beecham Group Limited, priority 1980, dated 1982).
Converted amounts (≈) assume the structure as drawn. Read-outs that look alike come from different tables or passages of the source.

Tests used:
[1] = system: M. hyosynoviae ATCC 25591; experiment: Anti-mycoplasmal activity in vitro MIC; format: cell-based; conditions: 144 h
[2] = Serum binding by ultrafiltration; format: in vitro ADME; conditions: pig, porcine serum, 8 mcg/ml, read-out: % bound to pig serum (converted)
Experimental: Serum binding was assessed by ultrafiltration of porcine serum containing compounds at 8 mcg/ml, and through an Amicon CF50A ultrafiltration cone. Separation of ultrafiltrate was achieved by centrifugation. Unbound concentrations of compound were measured in the ultrafiltrate by microbiological assay (B. subtilis ATCC 6633) against standards prepared in saline.

[3] = system: M. suipneumoniae ATCC 25095; experiment: Anti-mycoplasmal activity in vitro MIC; format: cell-based; conditions: Mesomycoplasma hyopneumoniae, ATCC25095, 144 h; M. suipneumoniae ATCC 25095; Friis broth, 0.9% agarose, 6 days 37° C.; read-out: M.I.C.
Sarcina lutea 8340 = experiment: Human bacteria MIC; format: cell-based
Experimental: The values were determined by serial dilutions in nutrient agar with 5% chocolated horse blood after incubations for 18 hours at 37° C.

[4] = system: Staph. aureus B4 (pen. resistant); experiment: Veterinary bacteria MIC; format: cell-based; conditions: Staphylococcus aureus, Diagnostic Sensitivity Test Agar, 18 hours 37° C.
Experimental: (§1) The values were determined using a two fold serial dilutions in Diagnostic Sensitivity Test Agar with an inoculum of 10^4 organisms and incubation for 18 hours at 37° C.

Strep. dysgalactiae SPD1 = experiment: Veterinary bacteria MIC; format: cell-based; conditions: Streptococcus dysgalactiae, Diagnostic Sensitivity Test Agar, 18 hours 37° C.
Experimental: as §1

Staph. aureus Oxford = experiment: Veterinary bacteria MIC; format: cell-based; conditions: Staphylococcus aureus, Diagnostic Sensitivity Test Agar, 18 hours 37° C.
Experimental: as §1

S. dublin S7 = experiment: Veterinary bacteria MIC; format: cell-based; conditions: Salmonella enterica
Experimental: as §1

[5] = system: Staph. aureus 152 (pen. sens); experiment: Veterinary bacteria MIC; format: cell-based; conditions: Staphylococcus aureus, Diagnostic Sensitivity Test Agar, 18 hours 37° C.
Experimental: as §1

E. coli NCTC 10418 = experiment: Veterinary bacteria MIC; format: cell-based; conditions: Escherichia coli
Experimental: as §1

Strep. uberis SPU1 = experiment: Veterinary bacteria MIC; format: cell-based; conditions: Streptococcus uberis, Diagnostic Sensitivity Test Agar, 18 hours 37° C.
Experimental: as §1

Strep. agalactiae SPA1 = experiment: Veterinary bacteria MIC; format: cell-based; conditions: Streptococcus agalactiae, Diagnostic Sensitivity Test Agar, 18 hours 37° C.
Experimental: as §1

Past. multocida PA2 = experiment: Veterinary bacteria MIC; format: cell-based; conditions: Pasteurella multocida; Past. multocida PA2; Diagnostic Sensitivity Test Agar, 18 hours 37° C.; read-out: M.I.C.
Experimental: as §1

E. coli El = experiment: Veterinary bacteria MIC; format: cell-based; conditions: Escherichia coli
Experimental: as §1

Past. multocida PA1 = experiment: Veterinary bacteria MIC; format: cell-based; conditions: Pasteurella multocida, Diagnostic Sensitivity Test Agar, 18 hours 37° C.
Experimental: as §1

S. typhimurium S18 = experiment: Veterinary bacteria MIC; format: cell-based; conditions: Salmonella enterica
Experimental: as §1

[6] = system: Strep. suis (Group D) SPS11; experiment: Veterinary bacteria MIC; format: cell-based; conditions: Streptococcus suis
Experimental: as §1

[7] = system: Erysipelothrix rhusiopathiae NCTC 8163; experiment: Veterinary bacteria MIC; format: cell-based; conditions: Erysipelothrix rhusiopathiae, NCTC8163, 18 h
Experimental: as §1

Past. haemolytica PA5 = experiment: Veterinary bacteria MIC; format: cell-based; conditions: Mannheimia haemolytica; Past. haemolytica PA5; Diagnostic Sensitivity Test Agar, 18 hours 37° C.; read-out: M.I.C.
Experimental: as §1

M. hyorhinis ATCC 25021 = experiment: Anti-mycoplasmal activity in vitro MIC; format: cell-based; conditions: Mesomycoplasma hyorhinis, ATCC25021, 144 h
[8] = system: M. suipneumoniae J2206/183b; experiment: Anti-mycoplasmal activity in vitro MIC; format: cell-based; conditions: Mesomycoplasma hyopneumoniae, 144 h
[9] = system: M. suipneumoniae PW/C/210; experiment: Anti-mycoplasmal activity in vitro MIC; format: cell-based; conditions: Mesomycoplasma hyopneumoniae, 144 h
M. suipneumoniae LABER = experiment: Anti-mycoplasmal activity in vitro MIC; format: cell-based; conditions: Mesomycoplasma hyopneumoniae, 144 h
M. suipneumoniae MS16 = experiment: Anti-mycoplasmal activity in vitro MIC; format: cell-based; conditions: Mesomycoplasma hyopneumoniae, MS16, 144 h
M. suipneumoniae HK (2) = experiment: Anti-mycoplasmal activity in vitro MIC; format: cell-based; conditions: Mesomycoplasma hyopneumoniae, 144 h
M. gallisepticum S6 = experiment: Anti-mycoplasmal activity in vitro MIC; format: cell-based; conditions: Mycoplasmoides gallisepticum
M. suipneumoniae NB12 = experiment: Anti-mycoplasmal activity in vitro MIC; format: cell-based; conditions: Mesomycoplasma hyopneumoniae
M. dispar NCTC 10125 = experiment: Anti-mycoplasmal activity in vitro MIC; format: cell-based; conditions: 144 h
M. suipneumoniae TAM 6N = experiment: Anti-mycoplasmal activity in vitro MIC; format: cell-based; conditions: Mesomycoplasma hyopneumoniae, TAM6N, 144 h
[10] = system: M. bovigenitalium ATCC 14173; experiment: Anti-mycoplasmal activity in vitro MIC; format: cell-based; conditions: 144 h

Row | SMILES | MIC [1] | fraction unbound [2] | MIC [3] | MIC [4] | MIC (Strep. dysgalactiae SPD1) | MIC (Staph. aureus Oxford) | MIC [5] | MIC (Strep. uberis SPU1) | MIC (Strep. agalactiae SPA1) | MIC (Past. multocida PA2) | MIC (Past. multocida PA1) | MIC [7] | MIC (Past. haemolytica PA5) | MIC (M. hyorhinis ATCC 25021) | MIC (M. suipneumoniae MS16) | MIC (M. dispar NCTC 10125) | further results
1 | C/C(=C\C(=O)OCCCCCC=NN(C)C)C[C@@H]1OC[C@H](C[C@@H]2O[C@H]2[C@@H](C)[C@H](C)O)[C@@H](O)[C@H]1O [Example 6, 6-Dimethylhydrazonohexyl monate A] | 0.1 µg/mL (≈ 0.206 µM) | 0.239 | 0.5 µg/mL (≈ 1.03 µM) | 0.07 µg/mL (≈ 0.144 µM) | 0.07 µg/mL (≈ 0.144 µM) | 0.07 µg/mL (≈ 0.144 µM) | 0.07 µg/mL (≈ 0.144 µM) | 0.312 µg/mL (≈ 0.644 µM) | 1.25 µg/mL (≈ 2.58 µM) | 0.312 µg/mL (≈ 0.644 µM) | 2.5 µg/mL (≈ 5.16 µM) | 80 µg/mL (≈ 165 µM) | 10 µg/mL (≈ 20.6 µM) | 0.25 µg/mL (≈ 0.516 µM) | 0.25 µg/mL (≈ 0.516 µM) | 0.25 µg/mL (≈ 0.516 µM) | MIC (Sarcina lutea 8340; Micrococcus luteus, 8340, 18 h): > 100 µg/mL; MIC (S. dublin S7; S7, 18 h): > 80 µg/mL; MIC (E. coli NCTC 10418; NCTC10418, 18 h): > 80 µg/mL; MIC (E. coli El; 18 h): > 80 µg/mL; MIC (S. typhimurium S18; TYPHIMURIUM, 18 h): > 80 µg/mL; MIC ([6]; 18 h): 20 µg/mL (≈ 41.3 µM); MIC ([8]; J2206/183B): 1 µg/mL (≈ 2.06 µM); MIC ([9]; M. suipneumoniae PW/C/210, Friis broth, 0.9% agarose, 6 days 37° C., read-out: M.I.C.): 0.5 µg/mL (≈ 1.03 µM); MIC (M. suipneumoniae LABER; M. suipneumoniae LABER, Friis broth, 0.9% agarose, 6 days 37° C., read-out: M.I.C.): 0.5 µg/mL (≈ 1.03 µM); MIC (M. suipneumoniae HK (2)): 1 µg/mL (≈ 2.06 µM); MIC (M. gallisepticum S6; S6, 144 h): 5 µg/mL (≈ 10.3 µM); MIC (M. suipneumoniae NB12; 144 h, M. suipneumoniae NB12, Friis broth, 0.9% agarose, 6 days 37° C., read-out: M.I.C.): 0.5 µg/mL (≈ 1.03 µM); MIC (M. suipneumoniae TAM 6N): 1 µg/mL (≈ 2.06 µM); MIC [10]: 0.025 µg/mL (≈ 0.0516 µM)
2 | CON=C(CCCOC(=O)/C=C(\C)C[C@@H]1OC[C@H](C[C@@H]2O[C@H]2[C@@H](C)[C@H](C)O)[C@@H](O)[C@H]1O)c1ccccc1 [Example 5, 4-Methoxyimino-4-phenylbutyl monate A] | 0.25 µg/mL (≈ 0.481 µM) | < 0.068 | 0.5 µg/mL (≈ 0.962 µM) | 0.625 µg/mL (≈ 1.2 µM) | 1.25 µg/mL (≈ 2.41 µM) | 0.625 µg/mL (≈ 1.2 µM) | 0.625 µg/mL (≈ 1.2 µM) | 0.625 µg/mL (≈ 1.2 µM) | 1.25 µg/mL (≈ 2.41 µM) | 0.039 µg/mL (≈ 0.0751 µM) | 20 µg/mL (≈ 38.5 µM) | 40 µg/mL (≈ 77 µM) | 80 µg/mL (≈ 154 µM) | 0.25 µg/mL (≈ 0.481 µM) | 0.25 µg/mL (≈ 0.481 µM) | 0.1 µg/mL (≈ 0.192 µM) | MIC (Sarcina lutea 8340; Micrococcus luteus, Sarcina lutea 8340, nutrient agar, 5% chocolated horse blood, 18 hours 37° C., read-out: M.I.C.): > 100 µg/mL; MIC (S. dublin S7; S. dublin S7, Diagnostic Sensitivity Test Agar, 18 hours 37° C., read-out: M.I.C.): > 80 µg/mL; MIC (E. coli NCTC 10418; NCTC10418, E. coli NCTC 10418, Diagnostic Sensitivity Test Agar, 18 hours 37° C., read-out: M.I.C.): > 80 µg/mL; MIC (E. coli El; E. coli El, Diagnostic Sensitivity Test Agar, 18 hours 37° C., read-out: M.I.C.): > 80 µg/mL; MIC (S. typhimurium S18; S. typhimurium S18, Diagnostic Sensitivity Test Agar, 18 hours 37° C., read-out: M.I.C.): > 80 µg/mL; MIC ([6]; Strep. suis (Group D) SPS11, Diagnostic Sensitivity Test Agar, 18 hours 37° C., read-out: M.I.C.): 20 µg/mL (≈ 38.5 µM); MIC ([8]; M. suipneumoniae J2206/183b, Friis broth, 0.9% agarose, 6 days 37° C., read-out: M.I.C.): 0.5 µg/mL (≈ 0.962 µM); MIC [9]: 0.25 µg/mL (≈ 0.481 µM); MIC (M. suipneumoniae LABER): 0.25 µg/mL (≈ 0.481 µM); MIC (M. suipneumoniae HK (2); M. suipneumoniae HK (2), Friis broth, 0.9% agarose, 6 days 37° C., read-out: M.I.C.): 0.5 µg/mL (≈ 0.962 µM); MIC (M. gallisepticum S6; 144 h, M. gallisepticum S6, Friis broth, 0.9% agarose, 6 days 37° C., read-out: M.I.C.): 10 µg/mL (≈ 19.2 µM); MIC (M. suipneumoniae NB12; NB12, 144 h): 0.25 µg/mL (≈ 0.481 µM); MIC (M. suipneumoniae TAM 6N; M. suipneumoniae TAM 6N, Friis broth, 0.9% agarose, 6 days 37° C., read-out: M.I.C.): 0.5 µg/mL (≈ 0.962 µM); MIC ([10]; M. bovigenitalium ATCC 14173, Friis broth, 0.9% agarose, 6 days 37° C., read-out: M.I.C.): 0.05 µg/mL (≈ 0.0962 µM)
